We go through 23 compounds from patent US7714135B2, “Tetrahydropyridothiophenes for the treatment of proliferative diseases such as cancer” (4SC AG, priority 2005, dated 2010).

Where only a bound is given, the exact number is not on record here.

For orientation: IC50 means the concentration needed to halve the response being measured.

Assay [1] deals with RKO colon adenocarcinoma cells (RKOp27) arrested by the expression of ectopic p27Kip1. Nature of the assay: Alamar Blue cell viability assay on RKOp27 cells arrested by Ponasterone A-induced p27Kip1 expression (cell cycle specific mode of action). The settings on record: Homo sapiens, RKOp27 subclone induced with 10 μM Ponasterone A, 72 hours incubation, read-out: IC50 RKO p27 induced (arrested). In kind it is cell-based. How it is done: To determine the cell cycle specific mode of action, subclones of RKO colon adenocarcinoma cells (RKOp27 or RKOp21 as described by Schmidt et al. in Oncogene 19, 2423-2429; 2000) are seeded into 96 well flat bottom plates at a density of 16000 cells per well in a volume of 50 μl per well in DMEM growth medium with 10% FCS containing 10 μM Ponasterone A. 24 hours after seeding the 50 μl each of the compound dilutions in DMEM medium are added into each well of the 96 Well plate. Each compound dilution is tested as quadruplicates. Wells containing untreated control cells are filled with 50 μl DMEM medium containing 1% DMSO. The cells are then incubated with the substances for 72 hours at 37° C. in a humidified atmosphere containing 5% carbon dioxide. To determine the viability of the cells, 10 μl of an Alamar Blue solution (Biosource) are added and the fluorescence was measured at an extinction of 544 nm and an emission of 590 nm. For the calculation of the cell viability the emission value from untreated cells is set as 100% viability and the emission rates of treated cells are set in relation to the values of untreated cells. Viabilities are expressed as % values. Viability is compared of proliferating cells grown in the absence of the inducer Ponasterone A, versus viability of cells arrested by the expression of ectopic p27Kip1 induced by Ponasterone A.

Assay [2] has as its system RKO (RKOp27) human colon adenocarcinoma cells. The experiment in a line: Alamar Blue cell viability assay, anti-proliferative/cytotoxic activity on proliferating (uninduced) RKOp27 cells. The format is cell-based. The following applies: RKOp27 subclone without inducer, 72 hours incubation, read-out: IC50 RKO p27 uninduced (proliferating). The method, then: The anti-proliferative/cytotoxic activity of the compounds described herein, can be tested on subclones of RKO (RKOp27) human colon adenocarcinoma cells (Schmidt et al., Oncogene 19, 2423-2429; 2000) using the Alamar Blue cell viability assay (described in O'Brien et al. Eur J Biochem 267, 5421-5426, 2000). The compounds are dissolved as 20 mM solutions in dimethylsulfoxide (DMSO) and subsequently diluted in semi-logarithmic steps. DMSO dilutions are further diluted 1:100 into Dulbecco's modified Eagle's medium (DMEM) containing 10% fetal calf serum to a final concentration twice as much as the final concentration in the test. RKO subclones are seeded into 96 well flat bottom plates at a density of 4000 cells per well in a volume of 50 μl per well. 24 hours after seeding the 50 μl each of the compound dilutions in DMEM medium are added into each well of the 96 Well plate. Each compound dilution is tested as quadruplicates. Wells containing untreated control cells are filled with 50 μl DMEM medium containing 1% DMSO. The cells are then incubated with the substances for 72 hours at 37° C. in a humidified atmosphere containing 5% carbon dioxide. To determine the viability of the cells, 10 μl of an Alamar Blue solution (Biosource) are added and the fluorescence is measured at an extinction of 544 nm and an emission of 590 nm. For the calculation of the cell viability the emission value from untreated cells is set as 100% viability and the emission rates of treated cells are set in relation to the values of untreated cells. Viabilities are expressed as % values.
The corresponding IC50 values of the compounds for anti-proliferative/cytotoxic activity are determined from the concentration-effect curves.
Representative IC50 values for anti-proliferation/cytotoxicity determined in the mentioned assay follow from the following table A, in which the numbers of the compound correspond to the numbers of the examples.

In the case of `CCOC(=O)N1CCc2c(sc(NC(=O)CC(C)c3ccccc3)c2C#N)C1` (racemic) [Example 4, 3-Cyano-2-((RS)-3-phenyl-butanoylamino)-4,7-dihydro-5H-thieno[2,3-c]pyridine-6-carboxylic acid ethyl ester], the concentration for half-maximal inhibition (IC50) in assay [1] was over 100000 nM; in assay [2], at most 300 nM.
For `CCOC(=O)N1CCc2c(sc(NC(=O)CC(C)c3cccnc3)c2C#N)C1` (racemic) [Example 49, 3-Cyano-2-((RS)-3-pyridin-3-yl-butanoylamino)-4,7-dihydro-5H-thieno[2,3-c]pyridine-6-carboxylic acid ethyl ester] the same measures were over 100000 nM and 300 to 2000 nM.
On the same counts, the results for `CC(CC(=O)Nc1sc2c(c1C#N)CCN(C(=O)OCCc1ccncc1)C2)c1cccnc1` (racemic) [Example 76, 3-Cyano-2-((RS)-3-pyridin-3-yl-butanoylamino)-4,7-dihydro-5H-thieno[2,3-c]pyridine-6-carboxylic acid 2-pyridin-4-yl-ethyl ester] are at least 40000 nM and 300 to 2000 nM.
For `CC(CC(=O)Nc1sc2c(c1C#N)CCN(C(=O)OCCc1cccnc1)C2)c1ccccc1` (racemic) [Example 92, 3-Cyano-2-((RS)-3-phenyl-butanoylamino)-4,7-dihydro-5H-thieno[2,3-c]pyridine-6-carboxylic acid 2-pyridin-3-yl-ethyl ester] the same measures were over 100000 nM and at most 300 nM.
In the case of `CC(CC(=O)Nc1sc2c(c1C#N)CCN(C(=O)OCCn1ccnc1)C2)c1ccccc1` (racemic) [Example 96, 3-Cyano-2-((RS)-3-phenyl-butanoylamino)-4,7-dihydro-5H-thieno[2,3-c]pyridine-6-carboxylic acid 2-imidazol-1-yl-ethyl ester], the half-inhibitory concentration (IC50) in assay [1] is over 100000 nM; in assay [2] it was at most 300 nM.
In the case of `CCOC(=O)N1CCc2c(sc(NC(=O)CCc3ccccc3)c2C#N)C1` [Example 1, 3-Cyano-2-(3-phenyl-propanoylamino)-4,7-dihydro-5H-thieno[2,3-c]pyridine-6-carboxylic acid ethyl ester], the concentration for half-maximal inhibition (IC50) in assay [1] is over 100000 nM; in assay [2], at most 300 nM.
For `CCOC(=O)N1CCc2c(sc(NC(=O)C3CC3c3ccccc3)c2C#N)C1` (stereo not shown) [Example 2, 3-Cyano-2-{[1-(2-phenyl-cyclopropyl)-methanoyl]-amino}-4,7-dihydro-5H-thieno[2,3-c]pyridine-6-carboxylic acid ethyl ester] the same measures were over 100000 nM and at most 300 nM.
For `CCOC(=O)N1CCc2c(sc(NC(=O)CCc3ccccc3C)c2C#N)C1` [Example 3, 3-Cyano-2-(3-o-tolyl-propanoylamino)-4,7-dihydro-5H-thieno[2,3-c]pyridine-6-carboxylic acid ethyl ester] the same measures were over 100000 nM and at most 300 nM.
On the same counts, the results for `CCOC(=O)N1CCc2c(sc(NC(=O)CCc3ccco3)c2C#N)C1` [Example 5, 3-Cyano-2-(3-furan-2-yl-propanoylamino)-4,7-dihydro-5H-thieno[2,3-c]pyridine-6-carboxylic acid ethyl ester] are over 100000 nM and at most 300 nM.
`CCOC(=O)N1CCc2c(sc(NC(=O)C(C)Cc3ccccc3)c2C#N)C1` (stereo not shown) [Example 6, 3-Cyano-2-(2-methyl-3-phenyl-propanoylamino)-4,7-dihydro-5H-thieno[2,3-c]pyridine-6-carboxylic acid ethyl ester]: the figures for the 50% inhibitory concentration (IC50) in assay [1] and in assay [2] were over 100000 nM and 300 to 2000 nM, respectively.
On the same counts, the results for `CCOC(=O)N1CCc2c(sc(NC(=O)CCc3cccs3)c2C#N)C1` [Example 7, 3-Cyano-2-(3-thiophen-2-yl-propanoylamino)-4,7-dihydro-5H-thieno[2,3-c]pyridine-6-carboxylic acid ethyl ester] are over 100000 nM and at most 300 nM.
For `CCOC(=O)N1CCc2c(sc(NC(=O)CCc3ccc(F)cc3)c2C#N)C1` [Example 8, 3-Cyano-2-(3-(4-fluoro-phenyl)-propanoylamino)-4,7-dihydro-5H-thieno[2,3-c]pyridine-6-carboxylic acid ethyl ester] the same measures were over 100000 nM and at most 300 nM.
Consider `CCOC(=O)N1CCc2c(sc(NC(=O)CCc3cccnc3)c2C#N)C1` [Example 9, 3-Cyano-2-(3-pyridin-3-yl-propanoylamino)-4,7-dihydro-5H-thieno[2,3-c]pyridine-6-carboxylic acid ethyl ester], for which the IC50 in assay [1] is over 100000 nM; in assay [2] it was 300 to 2000 nM.
For `CCOC(=O)N1CCc2c(sc(NC(=O)CCc3ccccc3F)c2C#N)C1` [Example 10, 3-Cyano-2-(3-(2-fluoro-phenyl)-propanoylamino)-4,7-dihydro-5H-thieno[2,3-c]pyridine-6-carboxylic acid ethyl ester] the same measures were over 100000 nM and at most 300 nM.
Take `CCOC(=O)N1CCc2c(sc(NC(=O)CCc3cc(C)c(C)o3)c2C#N)C1` [Example 11, 3-Cyano-2-[3-(4,5-dimethyl-furan-2-yl)-propanoylamino]-4,7-dihydro-5H-thieno[2,3-c]pyridine-6-carboxylic acid ethyl ester]: the IC50 in assay [1] is over 100000 nM; in assay [2] it was at most 300 nM.
For the compound `CCOC(=O)N1CCc2c(sc(NC(=O)CCc3cccc(F)c3)c2C#N)C1` [Example 12, 3-Cyano-2-[3-(3-fluoro-phenyl)-propanoylamino]-4,7-dihydro-5H-thieno[2,3-c]pyridine-6-carboxylic acid ethyl ester], the IC50 in assay [1] was over 100000 nM; in assay [2] it was at most 300 nM.
On the same counts, the results for `CCOC(=O)N1CCc2c(sc(NC(=O)CCc3ccccc3Cl)c2C#N)C1` [Example 13, 2-[3-(2-Chloro-phenyl)-propanoylamino]-3-cyano-4,7-dihydro-5H-thieno[2,3-c]pyridine-6-carboxylic acid ethyl ester] are over 100000 nM and at most 300 nM.
On the same counts, the results for `CCOC(=O)N1CCc2c(sc(NC(=O)CCc3ccc(C)cc3)c2C#N)C1` [Example 14, 3-Cyano-2-(3-p-tolyl-propanoylamino)-4,7-dihydro-5H-thieno[2,3-c]pyridine-6-carboxylic acid ethyl ester] are over 100000 nM and at most 300 nM.
Consider `CC(C)(C)OC(=O)N1CCc2c(sc(NC(=O)CCc3cccnc3)c2C#N)C1` [Example 15, 3-Cyano-2-(3-pyridin-3-yl-propanoylamino)-4,7-dihydro-5H-thieno[2,3-c]pyridine-6-carboxylic acid tert-butyl ester], for which the IC50 is over 100000 nM in assay [1] and at most 300 nM in assay [2].
For `CCOC(=O)N1CCc2c(sc(NC(=O)CCc3cccc(Cl)c3)c2C#N)C1` [Example 16, 2-[3-(3-Chloro-phenyl)-propanoylamino]-3-cyano-4,7-dihydro-5H-thieno[2,3-c]pyridine-6-carboxylic acid ethyl ester] the same measures were over 100000 nM and at most 300 nM.
As for `CCOC(=O)N1CCc2c(sc(NC(=O)CCc3ccc(Cl)cc3)c2C#N)C1` [Example 17, 2-[3-(4-Chloro-phenyl)-propanoylamino]-3-cyano-4,7-dihydro-5H-thieno[2,3-c]pyridine-6-carboxylic acid ethyl ester], the results for the IC50 in assay [1] and in assay [2] were over 100000 nM and at most 300 nM, respectively.
On the same counts, the results for `CCOC(=O)N1CCc2c(sc(NC(=O)CCc3cccc(C)c3)c2C#N)C1` [Example 18, 3-Cyano-2-(3-m-tolyl-propanoylamino)-4,7-dihydro-5H-thieno[2,3-c]pyridine-6-carboxylic acid ethyl ester] are over 100000 nM and at most 300 nM.
For `CCOC(=O)N1CCc2c(sc(NC(=O)CCC3CCCCC3)c2C#N)C1` [Example 19, 3-Cyano-2-(3-cyclohexyl-propanoylamino)-4,7-dihydro-5H-thieno[2,3-c]pyridine-6-carboxylic acid ethyl ester] the same measures were over 100000 nM and 300 to 2000 nM.
